# Experimental data published in patent US11001591B2, “TRAF 6 inhibitors” (HELMHOLTZ ZENTRUM MUENCHEN—DEUTSCHES FORSCHUNGSZENTRUM FÜR …, priority 2016, dated 2021).
# Read-outs that look alike come from different tables or passages of the source.
# Legend:
# Plasma stability = format: in vitro ADME
# Description: (§1) All ADME (plasma stability, plasma protein binding, microsomal stability, Log D, Caco-2 assay, CYP450 inhibition and hERG predictor assay) as well as pharmacokinetic studies (Tmax, Cmax, AUC0-240 min, Mean Residence Time, Elimination half life, Elimination rate constant, Volume of Distribution and Clearance) of C25-140 (compound 3) were conducted by Bienta Enamine Biology Services of Bienta/Enamine Ltd.
# MDM2 = molecular target: T1, MDM2 (Homo sapiens, UniProt Q00987); experiment: In vitro ubiquitination assay, MDM2; format: biochemical; details: K48 chain formation
# T1 construct: purchased Boston Biochem one of K-102, K-260, K-200B, K-220, K-240, K-270
# Description: For analysis of clAP1, MDM2, TRIM63, RNF4, ITCH and E6AP mediated poly-ubiquitination, the respective ubiquitin ligase kit from Boston Biochem (K-102, K-260, K-200B, K-220, K-240 and K-270) was used. Here, reaction buffer, E1, E2 and E3 enzyme (and p53 substrate in case of MDM2) were mixed and pre-incubated with compound or DMSO for 5 minutes at room temperature before adding Mg^2+-ATP and mono-ubiquitin for reaction start. Ubiquitination was visualized by Western Blot analyses.
# [1] = system: HBL1 (ABC-DLBCL-MYD88 L265P); experiment: Cell viability in DLBCL, HBL1; format: cell-based; details: 30 μM added at day 0, 4 and 8; 9 days
# Description: (§2) To determine the effects of C25-140 on MYD88-dependent ABC-DLBCL, we chose the HBL1 (ABC-DLBCL-MYD88 L265P), U2932 (ABC DLBCL-MYD88 wt) and BJAB (GCB DLBCL) cell lines. 1×10^6 cells of each cell line was seeded in 5 ml and treated with 30 μM compound C25-140 (compound 3) or DMSO. The entire experiment was carried out for 9 days. Every day 500 μl were taken and viable cell number was acquired using the ViCEII cell counter (Beckmann Coulter). At days 4 and 8 of the experiment the volume was again adjusted to 5 ml and samples were supplemented with 30 μM compound C25-140 or DMSO. This process was necessary to ensure linear proliferation of DMSO treated cells. All curves of C25-140 treated samples were referred to the corresponding DMSO treated controls.
# [2] = system: 87 primary molecular targets; experiment: SafetyScreen87 (Eurofins Cerep Panlabs); format: binding; details: 10 μM
# Description: The SafetyScreen87, a total of 87 assays, was carried out at Eurofins Cerep Panlabs. 87 primary molecular targets including 13 enzyme assays (kinases and non-kinase enzymes) and 74 binding assays (nuclear receptors, GPCRs, transporters and ion channels) were performed at a compound concentration of 10 μM C25-140. Each of the 87 assay reactions was performed at the optimised condition that was historically available at Eurofins Cerep Panlabs. In parallel to C25-140, a reference compound for each of the 87 reactions was concurrently tested to guarantee optimal setting of the assays. In this study the reference compounds performed in the same range as historic Ki values.
# NF-κB = experiment: EMSA NF-κB activation in Jurkat T-cells; format: cell-based, human; details: PMA/Ionomycin
# Description: For compound treatment, MEF cells were seeded in 6 well plates at 1.2×10^5 cells/well the day before treatment. Jurkat T-cells were seeded directly before treatment at 2×10^5 cells/sample. Six hours after compound or DMSO treatment cells were stimulated as indicated. Thereby, MEF cells were left untreated or stimulated with recombinant mouse IL-1β (1 ng/mL) or TNFα (10 ng/mL) for 20 minutes. Jurkat T-cells were stimulated with Phorbol-12-myristat-13-acetet (PMA) (400 ng/mL) and lonomycin (600 ng/mL) for 30 minutes. Eventually, cells were lysed in high-salt lysis buffer (20 mM HEPES pH 7.9; 350 mM NaCl; 1 mM MgCl2; 0.5 mM EDTA; 0.1 mM EGTA; 20% Glycerol; 1% NP-40; 10 mM NaF; 8 mM β-Glycerophosphate; 1 mM DTT; 300 μM Sodium-vanadate; complete protease inhibitor) and analyzed in EMSA assays using H2K (NF-κB) or Oct-1 (loading control) probes.
# U2OS cells = experiment: Cell growth of osteosarcoma cell line U2OS; format: cell-based
# Description: For analysis of the cell growth of the osteosarcoma cell line U20S, 5×10^3 cells were seeded in 96 well plates. 18 hours later, cells were treated with C25-140 (compound 3) or DMSO for 6 hours. Using a ^137caesium source (HWM-D2000), selected samples were irradiated with a dose of either 2 Gy or 4 Gy. Cell growth was measured every 24 hours for a period of 7 days by counting Hoechst33342 positive cells in an Operetta High-Content Imaging System (PerkinElmer) and the Harmony/Columbus analysis software (PerkinElmer).
# IKK kinase activity = experiment: IKK kinase assay in MEF cells; format: cell-based, mouse
# Description: For MEF cells, 5.5×10^5 cells were seeded, then treated with compound for 6 hours and eventually stimulated with IL-1β or TNFα for 8 minutes. 1×10^6 Jurkat T-cells were treated with compound for 6 hours and finally stimulated with PMA (400 ng/ml) and lonomycin (600 ng/ml) for 8 minutes. After cell lysis in Co-IP lysis buffer (150 mM NaCl; 25 mM Hepes (pH 7.5); 0.2% NP-40; 1 mM Glycerol; 10 mM NaF; 8 mM β-Glycerophosphat; 1 mM DTT; 300 μM Sodium-vanadate; complete protease inhibitor), input samples were taken and the supernatant was then incubated with 6 μL IKKγ antibody FL-419 (Santa Cruz Biotechnology). Upon incubation with Protein-G-Sepharose beads (GE Healthcare), beads were washed in Co-IP wash buffer (150 mM NaCl; 25 mM Hepes (pH 7.5); 0.2% NP-40; 1 mM Glycerol) and transferred into kinase reaction buffer ([…] HEPES pH7.9; 10 mM MgCl2; 20 μM ATP; 20 mM β-Glycerophosphat; 200 μM Sodium-Vanadate; 1 mM DTT) supplemented with […] GST-IκBα (1-53) and 0.5 μL ^32P-γ-ATP. After 30 minutes incubation at 37° C., reaction was stopped and analyzed by autoradiography as well as Western Blot after separation on SDS-PAGE.
# [3] = Pharmacokinetic studies IV, PO, IP; format: in vivo; details: for half-life: read-out: in vivo half-life in circulation
# Description: as §1
# The inventors also tested the pharmacokinetics (PK) of C25-140 after intravenous (IV), peroral (PO) and intraperitoneal (IP) injection of each 10 mg/kg compound. All the analyzed data are summarized in FIG. 9B and the concentration/time-course graph for IP administration is shown in FIG. 9C.
# BJAB (GCB DLBCL) = experiment: Cell viability in DLBCL, BJAB; format: cell-based; details: 30 μM added at day 0, 4 and 8; 9 days
# Description: as §2
# T1 sequence (Q00987 whole entry): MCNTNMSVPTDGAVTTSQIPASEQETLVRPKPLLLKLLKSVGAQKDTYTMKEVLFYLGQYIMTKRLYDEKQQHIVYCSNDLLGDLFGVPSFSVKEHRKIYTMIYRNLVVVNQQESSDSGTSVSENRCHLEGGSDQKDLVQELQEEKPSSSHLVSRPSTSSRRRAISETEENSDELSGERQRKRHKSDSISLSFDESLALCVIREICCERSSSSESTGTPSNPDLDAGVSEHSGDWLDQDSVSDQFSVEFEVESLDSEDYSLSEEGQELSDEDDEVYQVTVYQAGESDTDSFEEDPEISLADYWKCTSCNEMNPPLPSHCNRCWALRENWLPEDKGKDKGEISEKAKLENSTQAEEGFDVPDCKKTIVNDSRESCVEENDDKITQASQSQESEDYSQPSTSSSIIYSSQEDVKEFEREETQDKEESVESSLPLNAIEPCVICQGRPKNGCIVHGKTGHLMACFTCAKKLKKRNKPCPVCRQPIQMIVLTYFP
structure (smiles),measurement,setting,value
"Cc1nn(-c2ccc3nnc(C)n3n2)c(C)c1CCC(=O)N1CCC(Cc2ccccc2)CC1 [Compound 3, 1-(4-benzylpiperidin-1-yl)-3-(3,5-dimethyl-1-(3-methyl-[1,2,4]triazolo[4,3-b]pyridazin-6-yl)-1H-pyrazol-4-yl)propan-1-one]",plasma stability,Plasma stability,stable
same,p53 ubiquitination by MDM2,MDM2,not affected
same,viability (cell count),[1],significantly reduced
same,binding to SafetyScreen87 targets,[2],no significant binding
same,NF-κB activation,NF-κB,attenuated
same,"cell proliferation, compound alone vs 2Gy irradiation",U2OS cells; 30 μM,same inhibitory impact
same,"cell proliferation, combination with 2Gy irradiation",U2OS cells; 30 μM C25-140+2Gy,boosted the effect to the region of 4Gy irradiation
same,IKK kinase activity after IL-1β stimulation,IKK kinase activity,decreased
same,TNFα induced phosphorylation of IκBα,IKK kinase activity; TNFα,also affected
same,adverse effects on animals during PK studies,[3]; 10 mg/kg,no obvious adverse effects
same,distribution phase,"[3]; IV, PO, IP 10 mg/kg",rapid initial distribution phase
same,half-life,"[3]; in vivo, iv, 10 mg/kg",1.33 h
same,half-life,"[3]; in vivo, po, 10 mg/kg",2.12 h
same,bioavailability,"[3]; in vivo, po, calculated, 10 mg/kg",~45%
same,half-life,"[3]; in vivo, IP administration, 10 mg/kg",3.07 h
same,viability (cell count),BJAB (GCB DLBCL),did not show any difference
